From ChEMBL document CHEMBL1201862, “PubChem BioAssay data set” (2004)
Activity calls are given as the source filed them.

Tests used:
Type in all cases: functional
[1] = target: 5'-AMP-activated protein kinase catalytic subunit alpha-1 (Homo sapiens, UniProt Q13131)
[2] = target: Cyclin-dependent kinase 7 (Homo sapiens, UniProt P50613);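 note: value comes from a kinome-wide kinase profiling panel in which CDK7 is one member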
Focal adhesion kinase 1 = Focal adhesion kinase 1 (Homo sapiens, UniProt Q05397);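 note: measured as one member of a kinome panel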
[3] = target: Cyclin-dependent kinase 8 (Homo sapiens, UniProt P49336); test: Navigating the Kinome. Panel member name: CDK8
Cyclin-dependent kinase 8, sequence (P49336 whole entry): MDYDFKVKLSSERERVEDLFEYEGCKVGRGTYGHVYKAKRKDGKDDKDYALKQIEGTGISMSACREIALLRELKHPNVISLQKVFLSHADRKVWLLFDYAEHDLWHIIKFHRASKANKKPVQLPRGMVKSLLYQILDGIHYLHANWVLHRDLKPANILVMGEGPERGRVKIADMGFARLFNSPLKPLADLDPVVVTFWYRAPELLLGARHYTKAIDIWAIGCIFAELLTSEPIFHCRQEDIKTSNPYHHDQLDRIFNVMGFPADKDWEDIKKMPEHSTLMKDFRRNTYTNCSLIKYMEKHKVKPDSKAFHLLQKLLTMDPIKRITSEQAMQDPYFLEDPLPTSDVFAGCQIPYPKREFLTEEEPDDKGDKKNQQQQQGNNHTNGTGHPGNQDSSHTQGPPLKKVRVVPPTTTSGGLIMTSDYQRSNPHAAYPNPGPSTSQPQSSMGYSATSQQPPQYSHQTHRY

[4] = target: Receptor-type tyrosine-protein kinase FLT3 (Homo sapiens, UniProt P36888);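 note: FLT3 was tested as one member of a kinome-wide kinase panel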
[5] = target: Dual specificity mitogen-activated protein kinase kinase 2 (Homo sapiens, UniProt P36507); test: Navigating the Kinome. Panel member name: MAP2K2
Dual specificity mitogen-activated protein kinase kinase 2, sequence (P36507 whole entry): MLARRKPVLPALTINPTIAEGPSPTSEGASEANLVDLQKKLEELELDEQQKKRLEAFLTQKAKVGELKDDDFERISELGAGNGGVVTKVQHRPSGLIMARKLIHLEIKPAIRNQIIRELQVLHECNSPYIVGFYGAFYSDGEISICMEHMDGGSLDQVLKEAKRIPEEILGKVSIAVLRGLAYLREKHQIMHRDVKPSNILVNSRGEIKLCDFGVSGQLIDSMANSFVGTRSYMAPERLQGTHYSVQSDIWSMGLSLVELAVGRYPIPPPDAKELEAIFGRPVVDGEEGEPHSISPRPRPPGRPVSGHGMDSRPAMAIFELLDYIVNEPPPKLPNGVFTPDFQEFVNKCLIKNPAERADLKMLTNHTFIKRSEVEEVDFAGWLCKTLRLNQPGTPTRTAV

[6] = target: Tyrosine-protein kinase JAK3 (Homo sapiens, UniProt P52333)
[7] = target: Calcium/calmodulin-dependent protein kinase type II subunit alpha (Homo sapiens, UniProt Q9UQM7); test: Navigating the Kinome. Panel member name: CAMK2A
Calcium/calmodulin-dependent protein kinase type II subunit alpha, sequence (Q9UQM7 whole entry): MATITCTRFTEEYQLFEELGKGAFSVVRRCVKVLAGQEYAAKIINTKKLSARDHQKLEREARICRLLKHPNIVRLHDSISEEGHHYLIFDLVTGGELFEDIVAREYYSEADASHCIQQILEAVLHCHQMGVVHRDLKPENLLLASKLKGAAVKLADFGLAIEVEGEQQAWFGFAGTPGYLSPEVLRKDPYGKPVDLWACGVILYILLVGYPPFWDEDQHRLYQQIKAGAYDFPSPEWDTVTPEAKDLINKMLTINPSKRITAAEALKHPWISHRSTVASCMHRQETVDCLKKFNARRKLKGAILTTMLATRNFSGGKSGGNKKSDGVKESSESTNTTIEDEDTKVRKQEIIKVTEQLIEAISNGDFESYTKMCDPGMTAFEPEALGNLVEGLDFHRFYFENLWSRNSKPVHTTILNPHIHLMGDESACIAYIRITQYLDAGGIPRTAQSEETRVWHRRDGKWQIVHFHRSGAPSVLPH

[8] = target: Tyrosine-protein kinase receptor TYRO3 (Homo sapiens, UniProt Q06418);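 note: TYRO3 value obtained as one member of a kinome-wide profiling panel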
[9] = target: cAMP-dependent protein kinase catalytic subunit alpha (Homo sapiens, UniProt P17612)
[10] = target: Platelet-derived growth factor receptor beta (Homo sapiens, UniProt P09619);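 note: value comes from a kinome panel, with PDGFRB tested as one panel member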
Platelet-derived growth factor receptor beta, sequence (P09619 whole entry): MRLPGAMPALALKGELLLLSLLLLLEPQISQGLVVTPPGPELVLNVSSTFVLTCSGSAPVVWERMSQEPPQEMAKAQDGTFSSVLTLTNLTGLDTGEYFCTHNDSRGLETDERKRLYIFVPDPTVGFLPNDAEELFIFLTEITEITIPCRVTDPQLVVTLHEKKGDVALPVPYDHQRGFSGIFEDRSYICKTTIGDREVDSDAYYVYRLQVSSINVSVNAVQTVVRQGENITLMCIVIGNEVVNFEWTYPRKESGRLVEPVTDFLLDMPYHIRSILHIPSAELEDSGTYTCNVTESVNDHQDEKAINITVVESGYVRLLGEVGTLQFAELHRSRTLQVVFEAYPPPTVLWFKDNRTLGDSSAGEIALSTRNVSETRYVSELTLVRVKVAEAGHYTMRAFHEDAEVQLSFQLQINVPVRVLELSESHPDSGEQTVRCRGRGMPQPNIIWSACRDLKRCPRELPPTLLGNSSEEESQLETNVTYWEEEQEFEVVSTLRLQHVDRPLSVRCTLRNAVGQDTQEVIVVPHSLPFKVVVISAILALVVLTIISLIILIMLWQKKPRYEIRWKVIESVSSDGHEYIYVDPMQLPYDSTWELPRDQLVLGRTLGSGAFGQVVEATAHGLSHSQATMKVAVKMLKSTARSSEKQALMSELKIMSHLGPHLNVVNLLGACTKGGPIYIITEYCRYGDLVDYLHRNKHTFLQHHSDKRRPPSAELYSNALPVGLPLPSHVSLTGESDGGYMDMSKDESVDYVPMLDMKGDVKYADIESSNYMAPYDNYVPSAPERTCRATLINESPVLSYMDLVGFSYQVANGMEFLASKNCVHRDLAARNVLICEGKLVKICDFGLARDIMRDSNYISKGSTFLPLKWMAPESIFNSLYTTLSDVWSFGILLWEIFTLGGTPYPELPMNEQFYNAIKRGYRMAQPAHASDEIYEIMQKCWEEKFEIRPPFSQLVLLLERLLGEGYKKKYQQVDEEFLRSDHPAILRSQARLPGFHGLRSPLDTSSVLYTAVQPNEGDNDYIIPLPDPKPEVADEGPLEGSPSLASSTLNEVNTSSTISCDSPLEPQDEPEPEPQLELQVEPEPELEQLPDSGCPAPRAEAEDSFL

[11] = target: Cyclin-dependent kinase 9 (Homo sapiens, UniProt P50750);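 note: value from the CDK9 entry of a kinome-spanning kinase panel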
[12] = target: Macrophage colony-stimulating factor 1 receptor (Homo sapiens, UniProt P07333);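 note: value comes from the Navigating the Kinome screening panel, CSF1R member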
[13] = target: Serine/threonine-protein kinase Chk1 (Homo sapiens, UniProt O14757);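 note: measured as one member of a kinome-wide kinase profiling panel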
[14] = target: Fibroblast growth factor receptor 1 (Homo sapiens, UniProt P11362)
Aurora kinase A = Aurora kinase A (Homo sapiens, UniProt O14965);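 note: value from the Navigating the Kinome kinase panel profiling, panel entry STK6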
[15] = target: Serine/threonine-protein kinase TAO1 (Homo sapiens, UniProt Q7L7X3)
[16] = target: Dual specificity protein kinase CLK4 (Homo sapiens, UniProt Q9HAZ1)
Dual specificity protein kinase CLK4, sequence (Q9HAZ1 whole entry): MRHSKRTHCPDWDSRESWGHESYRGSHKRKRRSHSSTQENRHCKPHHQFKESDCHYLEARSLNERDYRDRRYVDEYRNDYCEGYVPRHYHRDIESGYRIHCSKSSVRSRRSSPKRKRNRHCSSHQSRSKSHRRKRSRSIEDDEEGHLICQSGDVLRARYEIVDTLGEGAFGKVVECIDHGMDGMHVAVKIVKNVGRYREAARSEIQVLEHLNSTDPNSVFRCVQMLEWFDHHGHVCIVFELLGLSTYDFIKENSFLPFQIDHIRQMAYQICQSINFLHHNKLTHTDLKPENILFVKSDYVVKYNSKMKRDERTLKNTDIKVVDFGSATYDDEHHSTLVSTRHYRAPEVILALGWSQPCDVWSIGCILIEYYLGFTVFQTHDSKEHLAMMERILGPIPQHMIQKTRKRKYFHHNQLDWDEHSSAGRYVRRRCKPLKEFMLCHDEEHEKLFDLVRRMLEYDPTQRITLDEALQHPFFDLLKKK

[17] = target: Mitogen-activated protein kinase 8 (Homo sapiens, UniProt P45983);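 note: value comes from one member of a kinome-wide kinase profiling panel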
Activated CDC42 kinase 1 = Activated CDC42 kinase 1 (Homo sapiens, UniProt Q07912); test: Navigating the Kinome. Panel member name: ACK1
[18] = target: Vascular endothelial growth factor receptor 1 (Homo sapiens, UniProt P17948);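 note: measured within a kinome-wide profiling panel, FLT1 as the panel member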
[19] = target: Serine/threonine-protein kinase pim-1 (Homo sapiens, UniProt P11309)
[20] = target: Tyrosine-protein kinase JAK2 (Homo sapiens, UniProt O60674);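 note: JAK2 tested as one member of a kinase panel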
Tyrosine-protein kinase JAK2, sequence (O60674 whole entry): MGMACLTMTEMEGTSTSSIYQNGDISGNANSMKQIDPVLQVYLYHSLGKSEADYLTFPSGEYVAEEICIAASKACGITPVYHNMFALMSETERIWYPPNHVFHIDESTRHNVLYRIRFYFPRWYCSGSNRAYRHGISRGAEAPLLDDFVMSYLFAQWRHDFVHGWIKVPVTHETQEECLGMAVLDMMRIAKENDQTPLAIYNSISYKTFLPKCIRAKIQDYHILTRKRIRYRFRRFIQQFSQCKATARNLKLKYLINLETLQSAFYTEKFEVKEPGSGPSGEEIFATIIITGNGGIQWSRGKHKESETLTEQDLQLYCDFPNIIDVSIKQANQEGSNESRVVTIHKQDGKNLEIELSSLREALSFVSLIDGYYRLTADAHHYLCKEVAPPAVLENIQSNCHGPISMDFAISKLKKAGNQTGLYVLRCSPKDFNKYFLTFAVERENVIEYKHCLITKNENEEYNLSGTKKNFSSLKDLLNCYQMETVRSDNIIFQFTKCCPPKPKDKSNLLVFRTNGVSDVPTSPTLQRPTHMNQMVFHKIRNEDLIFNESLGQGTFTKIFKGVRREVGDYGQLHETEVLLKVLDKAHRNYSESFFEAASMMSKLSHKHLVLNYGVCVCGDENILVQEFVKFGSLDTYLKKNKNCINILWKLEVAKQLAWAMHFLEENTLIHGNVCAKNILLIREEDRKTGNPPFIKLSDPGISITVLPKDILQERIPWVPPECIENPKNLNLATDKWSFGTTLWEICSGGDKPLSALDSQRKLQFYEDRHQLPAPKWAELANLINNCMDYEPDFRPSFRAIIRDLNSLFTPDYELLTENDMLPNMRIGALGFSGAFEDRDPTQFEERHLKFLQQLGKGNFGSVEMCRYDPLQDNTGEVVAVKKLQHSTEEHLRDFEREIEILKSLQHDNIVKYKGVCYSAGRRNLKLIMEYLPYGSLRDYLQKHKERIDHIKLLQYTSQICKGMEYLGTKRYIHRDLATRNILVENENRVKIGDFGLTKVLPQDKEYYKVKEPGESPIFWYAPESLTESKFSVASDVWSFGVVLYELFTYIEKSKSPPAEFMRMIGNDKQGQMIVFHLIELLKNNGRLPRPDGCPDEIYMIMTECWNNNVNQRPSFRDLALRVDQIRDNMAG

[21] = target: Glycogen synthase kinase-3 beta (Homo sapiens, UniProt P49841);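 note: value comes from a broad kinome profiling panel, with GSK3B as the panel member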
[22] = target: Hepatocyte growth factor receptor (Homo sapiens, UniProt P08581);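 note: kinase panel profiling across the kinome, with MET as the panel member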
[23] = target: Dual specificity mitogen-activated protein kinase kinase 1 (Homo sapiens, UniProt Q02750); test: Navigating the Kinome. Panel member name: MAP2K1
[24] = target: Dual specificity tyrosine-phosphorylation-regulated kinase 1B (Homo sapiens, UniProt Q9Y463); test: Navigating the Kinome. Panel member name: DYRK1B
[25] = target: Proto-oncogene tyrosine-protein kinase receptor Ret (Homo sapiens, UniProt P07949);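 note: measured within a kinome-wide profiling panel, RET as the panel member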
LIM domain kinase 1 = LIM domain kinase 1 (Homo sapiens, UniProt P53667); test: Navigating the Kinome. Panel member name: LIMK1
[26] = target: Leukocyte tyrosine kinase receptor (Homo sapiens, UniProt P29376); test: Navigating the Kinome. Panel member name: LTK
[27] = target: ALK tyrosine kinase receptor (Homo sapiens, UniProt Q9UM73);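 note: ALK tested as one member of a kinase panel screen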
[28] = target: Macrophage-stimulating protein receptor (Homo sapiens, UniProt Q04912); test: Navigating the Kinome. Panel member name: MST1R
[29] = target: Dual specificity tyrosine-phosphorylation-regulated kinase 1A (Homo sapiens, UniProt Q13627);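 note: measured against DYRK1A as one member of a broad kinome profiling panel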

Measured: Ki

5'-AMP-activated protein kinase catalytic subunit alpha-1, sequence (Q13131 whole entry): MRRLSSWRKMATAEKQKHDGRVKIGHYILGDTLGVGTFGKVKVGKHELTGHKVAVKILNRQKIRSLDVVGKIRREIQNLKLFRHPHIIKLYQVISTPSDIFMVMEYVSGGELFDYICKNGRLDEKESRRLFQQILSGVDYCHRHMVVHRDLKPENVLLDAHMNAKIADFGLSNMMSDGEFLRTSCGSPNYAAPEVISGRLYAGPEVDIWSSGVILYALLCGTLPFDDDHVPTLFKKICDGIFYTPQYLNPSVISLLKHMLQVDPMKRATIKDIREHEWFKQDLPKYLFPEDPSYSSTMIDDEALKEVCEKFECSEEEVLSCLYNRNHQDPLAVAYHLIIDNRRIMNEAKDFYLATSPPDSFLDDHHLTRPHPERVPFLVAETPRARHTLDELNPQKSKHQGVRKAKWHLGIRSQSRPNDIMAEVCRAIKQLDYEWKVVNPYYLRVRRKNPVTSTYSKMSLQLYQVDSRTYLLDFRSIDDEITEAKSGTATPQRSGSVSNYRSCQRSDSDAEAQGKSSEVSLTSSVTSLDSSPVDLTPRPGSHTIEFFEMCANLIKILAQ
Cyclin-dependent kinase 7, sequence (P50613 whole entry): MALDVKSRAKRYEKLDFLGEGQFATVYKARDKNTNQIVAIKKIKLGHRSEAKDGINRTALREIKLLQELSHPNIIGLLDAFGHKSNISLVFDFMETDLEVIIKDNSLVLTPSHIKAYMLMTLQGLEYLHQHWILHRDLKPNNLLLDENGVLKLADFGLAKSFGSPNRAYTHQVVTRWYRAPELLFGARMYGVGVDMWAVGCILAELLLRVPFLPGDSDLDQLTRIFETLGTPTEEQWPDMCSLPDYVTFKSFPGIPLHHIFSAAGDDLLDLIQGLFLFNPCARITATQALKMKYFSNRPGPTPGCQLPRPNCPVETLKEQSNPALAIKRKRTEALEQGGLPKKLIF

CC(=O)Nc1ccc(-n2nc3ccc(N)nc3n2)cc1
active: [1] 1.26 µM | [2] 2.51 µM | Focal adhesion kinase 1 5.01 µM | [3] 2.51 µM | [4] 2 µM | [5] 1.58 µM | [6] 2 µM | [7] 1.26 µM | [8] 1.26 µM | [9] 1.26 µM | [10] 2 µM | [11] 1 µM | [12] 2 µM | [13] 794 nM | [14] 1.26 µM | Aurora kinase A 1.58 µM | [15] 5.01 µM | [16] 794 nM | [17] 2.51 µM | Activated CDC42 kinase 1 1 µM | [18] 2.51 µM | [19] 3.98 µM | [20] 2 µM | [21] 1.26 µM | [22] 1 µM | [23] 2.51 µM | [24] 1.26 µM | [25] 1.58 µM | LIM domain kinase 1 1.26 µM | [26] 794 nM | [27] 2 µM | [28] 2.51 µM | [29] 1 µM
